Target: T1, rat mGlu2 (Rattus norvegicus, UniProt P31421)
T1 construct: expressed in transfected cells
Test: mGlu2 Ca2+ flux assay
Format: cell-based
Settings: for IC50: Gα15 HEK293 cells stably expressing rat mGlu2, glutamate EC80 addition, read-out: rat mGlu2 IC50; for remaining activity at 30 µM: amplitude of response in the presence of 30 μM test compound as percentage of maximal response to glutamate, read-out: rat mGlu2 Glu max (%)
How it was run: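 Gα15 HEK293 cells stably expressing rat mGlu2, Fluo-4 loaded; compound added, then glutamate at EC20 after 2.3 min and EC80 afterward, calcium flux read as F/F0. Peak amplitude around EC80 addition normalized to glutamate max; IC50 by unconstrained 4-parameter fit, top concentration 30 μM.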

T1 sequence (P31421 19-872): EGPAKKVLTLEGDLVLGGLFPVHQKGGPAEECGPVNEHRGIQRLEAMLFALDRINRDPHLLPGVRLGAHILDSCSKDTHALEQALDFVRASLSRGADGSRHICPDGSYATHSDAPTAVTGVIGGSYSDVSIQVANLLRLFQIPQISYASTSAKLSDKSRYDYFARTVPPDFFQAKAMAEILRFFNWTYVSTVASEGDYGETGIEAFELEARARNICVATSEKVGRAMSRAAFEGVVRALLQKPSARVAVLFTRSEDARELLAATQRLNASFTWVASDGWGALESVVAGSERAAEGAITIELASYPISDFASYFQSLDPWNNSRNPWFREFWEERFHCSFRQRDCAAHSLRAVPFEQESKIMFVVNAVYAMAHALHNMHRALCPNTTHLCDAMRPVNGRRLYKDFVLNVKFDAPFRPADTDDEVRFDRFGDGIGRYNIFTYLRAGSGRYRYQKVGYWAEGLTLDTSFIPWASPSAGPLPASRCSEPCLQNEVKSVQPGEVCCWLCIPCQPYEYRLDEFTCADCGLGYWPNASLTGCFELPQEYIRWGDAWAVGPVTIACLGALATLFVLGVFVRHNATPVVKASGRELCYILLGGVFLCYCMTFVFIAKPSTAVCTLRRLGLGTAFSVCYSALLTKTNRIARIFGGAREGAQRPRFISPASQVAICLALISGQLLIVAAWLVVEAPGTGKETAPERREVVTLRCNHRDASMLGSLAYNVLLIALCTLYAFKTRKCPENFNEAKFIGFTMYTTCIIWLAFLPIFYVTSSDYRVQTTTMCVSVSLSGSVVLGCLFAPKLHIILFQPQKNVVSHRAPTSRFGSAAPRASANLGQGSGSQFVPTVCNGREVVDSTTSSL

| Compound | IC50 [nM] | remaining activity at 30 µM [%] |
| --- | --- | --- |
| NC(=O)c1cn(-c2ccc(F)cc2)c2ccc(Oc3ccc(F)nc3)cc2c1=O [Compound 58, 1-(4-fluorophenyl)-6-((6-fluoropyridin-3-yl)oxy)-4-oxo-1,4-dihydroquinoline-3-carboxamide] | 1360 | 1.18 |
| CC1CN(Cc2cc(F)c3c(c2)c(=O)c(C(N)=O)cn3-c2ccc(F)cc2)CCO1 (stereo not shown) [Compound 93, 8-fluoro-1-(4-fluorophenyl)-6-((2-methylmorpholino)methyl)-4-oxo-1,4-dihydroquinoline-3-carboxamide] | 6520 | 0.14 |
| Cc1ccccc1CCc1ccc2c(c1)c(=O)c(C(N)=O)cn2-c1ccc(F)cc1 [Compound 8, 1-(4-fluorophenyl)-6-(2-methylphenethyl)-4-oxo-1,4-dihydroquinoline-3-carboxamide] | > 10000 | 18.7 |
| NC(=O)c1cn(-c2ccc(F)cc2)c2ccc(CN3CCOCC3)cc2c1=O [Compound 3, 1-(4-fluorophenyl)-6-(morpholinomethyl)-4-oxo-1,4-dihydroquinoline-3-carboxamide] | 3910 | -0.78 |
| CN(Cc1ccc2c(c1)c(=O)c(C(N)=O)cn2-c1ccc(F)cc1)C1CCCC1 [Compound 69, 6-((cyclopentyl(methyl)amino)methyl)-1-(4-fluorophenyl)-4-oxo-1,4-dihydroquinoline-3-carboxamide] | 2190 | 1.39 |
| CN(Cc1cccnc1)c1cc(F)c2c(c1)c(=O)c(C(N)=O)cn2-c1ccc(F)cc1 [Compound 51, 8-fluoro-1-(4-fluorophenyl)-6-(methyl(pyridin-3-ylmethyl)amino)-4-oxo-1,4-dihydroquinoline-3-carboxamide] | 1180 | 1.39 |
| Cc1ccc(CCc2ccc3c(c2)c(=O)c(C(N)=O)cn3-c2ccc(F)cc2)cc1 [Compound 6, 1-(4-fluorophenyl)-6-(4-methylphenethyl)-4-oxo-1,4-dihydroquinoline-3-carboxamide] | > 10000 | 68.5 |
| NC(=O)c1cn(-c2ccc(F)cc2)c2ccc(CCc3ccccc3)cc2c1=O [Compound 5, 1-(4-fluorophenyl)-4-oxo-6-phenethyl-1,4-dihydroquinoline-3-carboxamide] | ≥ 10000 | 4.65 |
| NC(=O)c1cn(-c2ccc(F)cc2)c2ccc(CN3CCS(=O)(=O)CC3)cc2c1=O [Compound 84, 6-((1,1-dioxidothiomorpholino)methyl)-1-(4-fluorophenyl)-4-oxo-1,4-dihydroquinoline-3-carboxamide] | 1160 | 2.04 |
| Cc1cccc(CCc2ccc3c(c2)c(=O)c(C(N)=O)cn3-c2ccc(F)cc2)c1 [Compound 7, 1-(4-fluorophenyl)-6-(3-methylphenethyl)-4-oxo-1,4-dihydroquinoline-3-carboxamide] | > 10000 | 42.1 |
| CS(=O)(=O)C1CCN(Cc2ccc3c(c2)c(=O)c(C(N)=O)cn3-c2ccc(F)cc2)CC1 [Compound 76, 1-(4-fluorophenyl)-6-((4-(methylsulfonyl)piperidin-1-yl)methyl)-4-oxo-1,4-dihydroquinoline-3-carboxamide] | 1120 | 1.29 |
| CC1CCN(C)CCN1Cc1ccc2c(c1)c(=O)c(C(N)=O)cn2-c1ccc(F)cc1 (stereo not shown) [Compound 68, 6-((4,7-dimethyl-1,4-diazepan-1-yl)methyl)-1-(4-fluorophenyl)-4-oxo-1,4-dihydroquinoline-3-carboxamide] | 4040 | 2.47 |
| Cc1ccc(Oc2ccc3c(c2)c(=O)c(C(N)=O)cn3-c2ccc(F)cc2)cn1 [Compound 55, 1-(4-Fluorophenyl)-6-((6-methylpyridin-3-yl)oxy)-4-oxo-1,4-dihydroquinoline-3-carboxamide] | 1710 | 1.96 |

These reach a lower IC50. Values come first.

| IC50 [nM] | remaining activity at 30 µM [%] | Compound |
| --- | --- | --- |
| 669 | 2.26 | CN(Cc1cccnc1)c1cc2c(=O)c(C(N)=O)cn(-c3ccc(F)cc3)c2cc1F [Compound 52, 7-Fluoro-1-(4-fluorophenyl)-6-(methyl(pyridin-3-ylmethyl)amino)-4-oxo-1,4-dihydroquinoline-3-carboxamide] |
| 823 | 1.41 | NC(=O)c1cn(-c2ccc(F)cc2)c2ccc(CN3CCC(C(F)(F)F)CC3)cc2c1=O [Compound 77, 1-(4-fluorophenyl)-4-oxo-6-((4-(trifluoromethyl)piperidin-1-yl)methyl)-1,4-dihydroquinoline-3-carboxamide] |
| 139 | 1.61 | COc1ccc(-n2cc(C(N)=O)c(=O)c3cc(CCc4cnc(C)nc4)ccc32)cc1 [Compound 15, 1-(4-methoxyphenyl)-6-(2-(2-methylpyrimidin-5-yl)ethyl)-4-oxo-1,4-dihydroquinoline-3-carboxamide] |
| 142 | 2.01 | CC1(C)CN(Cc2ccc3c(c2)c(=O)c(C(N)=O)cn3-c2ccc(F)cc2)CCO1 [Compound 90, 6-((2,2-dimethylmorpholino)methyl)-1-(4-fluorophenyl)-4-oxo-1,4-dihydroquinoline-3-carboxamide] |
| 397 | 1.03 | CN(Cc1ccc2c(c1)c(=O)c(C(N)=O)cn2-c1ccc(F)cc1)C1CC(F)(F)C1 [Compound 80, 6-(((3,3-difluorocyclobutyl)(methyl)amino)methyl)-1-(4-fluorophenyl)-4-oxo-1,4-dihydroquinoline-3-carboxamide] |
| 227 ± 55 | 1.52 ± 0.26 | Cc1ncc(CCc2ccc3c(c2)c(=O)c(C(N)=O)cn3-c2ccc(F)cc2)cn1 [Compound 1, 1-(4-Fluorophenyl)-6-(2-(2-methylpyrimidin-5-yl)ethyl)-4-oxo-1,4-dihydroquinoline-3-carboxamide] |
| 882 ± 160 | 1.84 ± 0.47 | NC(=O)c1cn(-c2ccc(F)cc2)c2ccc(Oc3cccnc3)cc2c1=O [Compound 56, 1-(4-fluorophenyl)-4-oxo-6-(pyridin-3-yloxy)-1,4-dihydroquinoline-3-carboxamide] |
| 222 ± 36 | 1.42 ± 0.51 | C[C@@H]1CN(Cc2ccc3c(c2)c(=O)c(C(N)=O)cn3-c2ccc(F)cc2)C[C@H](C)O1 [Compound 64, 6-((cis-2,6-Dimethylmorpholino)methyl)-1-(4-fluorophenyl)-4-oxo-1,4-dihydroquinoline-3-carboxamide] |
| 433 | 1.77 | NC(=O)c1cn(-c2ccc(F)cc2)c2ccc(Nc3cccnc3)cc2c1=O [Compound 16, 1-(4-fluorophenyl)-4-oxo-6-(pyridin-3-ylamino)-1,4-dihydroquinoline-3-carboxamide] |
| 460 ± 62 | 1.07 ± 0.13 | CC(Oc1ccc2c(c1)c(=O)c(C(N)=O)cn2-c1ccc(F)cc1)c1ccncc1 (stereo not shown) [Compound 23, 1-(4-fluorophenyl)-4-oxo-6-(1-(pyridin-4-yl)ethoxy)-1,4-dihydroquinoline-3-carboxamide] |
| 203 ± 42 | 1.7 ± 0.12 | NC(=O)c1cn(-c2ccc(F)cc2)c2ccc(COc3ccc(Cl)nc3)cc2c1=O [Compound 37, 6-(((6-chloropyridin-3-yl)oxy)methyl)-1-(4-fluorophenyl)-4-oxo-1,4-dihydroquinoline-3-carboxamide] |
| 243 ± 63 | 1.83 ± 0.2 | NC(=O)c1cn(-c2ccc(F)cc2)c2ccc(COc3ccncc3F)cc2c1=O [Compound 32, 1-(4-fluorophenyl)-6-(((3-fluoropyridin-4-yl)oxy)methyl)-4-oxo-1,4-dihydroquinoline-3-carboxamide] |
| 155 | 1.53 | Cc1ncc(CCc2cc(F)c3c(c2)c(=O)c(C(N)=O)cn3-c2ccc(F)cc2)cn1 [Compound 49, 8-fluoro-1-(4-fluorophenyl)-6-(2-(2-methylpyrimidin-5-yl)ethyl)-4-oxo-1,4-dihydroquinoline-3-carboxamide] |
| 269 | 0.78 | NC(=O)c1cn(-c2ccc(F)cc2)c2ccc(CCc3ccnc(C(F)(F)F)c3)cc2c1=O [Compound 46, 1-(4-fluorophenyl)-4-oxo-6-(2-(2-(trifluoromethyl)pyridin-4-yl)ethyl)-1,4-dihydroquinoline-3-carboxamide] |
| 482 ± 87 | 1.9 ± 0.11 | NC(=O)c1cn(-c2ccc(F)cc2)c2ccc(CCc3cccnc3)cc2c1=O [Compound 10, 1-(4-fluorophenyl)-4-oxo-6-(2-(pyridin-3-yl)ethyl)-1,4-dihydroquinoline-3-carboxamide] |
| 224 | 1.02 | CN(Cc1ccncc1)c1ccc2c(c1)c(=O)c(C(N)=O)cn2-c1ccc(F)cc1 [Compound 19, 1-(4-fluorophenyl)-6-(methyl(pyridin-4-ylmethyl)amino)-4-oxo-1,4-dihydroquinoline-3-carboxamide] |
| 422 ± 94 | 1.09 ± 0.16 | Cc1cc(COc2ccc3c(c2)c(=O)c(C(N)=O)cn3-c2ccc(F)cc2)ccn1 [Compound 24, 1-(4-fluorophenyl)-6-((2-methylpyridin-4-yl)methoxy)-4-oxo-1,4-dihydroquinoline-3-carboxamide] |
| 753 | 1.19 | NC(=O)c1cn(-c2ccc(F)cc2)c2ccc(CN3CCN(CC(F)(F)F)CC3)cc2c1=O [Compound 81, 1-(4-fluorophenyl)-4-oxo-6-((4-(2,2,2-trifluoroethyl)piperazin-1-yl)methyl)-1,4-dihydroquinoline-3-carboxamide] |
| 422 ± 52 | 1.24 ± 0.04 | NC(=O)c1cn(-c2ccc(F)cc2)c2ccc(CN3CCCS(=O)(=O)CC3)cc2c1=O [Compound 85, 6-((1,1-dioxido-1,4-thiazepan-4-yl)methyl)-1-(4-fluorophenyl)-4-oxo-1,4-dihydroquinoline-3-carboxamide] |
